Measurements published in patent US20140193827A1 (TEVA PHARMACEUTICAL INDUSTRIES, LTD., priority 2013, published 2014).

Test system: GA-primed murine splenocytes
Assay: ANOVA-based pattern identification method
Format: cell-based, mouse
Conditions: DOWN IN generic ONLY
From the text: We sought to identify probes matching specific patterns of expression across experimental conditions using a technique that referred to as the ANOVA-based Pattern Identification Method.
To carry out the analysis in a general manner, we computed the 6 p-values required to do pairwise comparisons of all 4 conditions for all probes using the ANOVA1 function in MATLAB. We then identified sets of probes matching the desired pattern. In the example above, probes were identified as being only affected by PG if their 6 pairwise comparison pvalues matched the following pattern (pGA-PG<0.05, pPG-reference standard<0.05, pPG-Medium<0.05, pGAMedium>0.05, pGA-reference standard>0.05, preference standard-Medium>0.05).

glatiramer acetate [GA]
GFRA3 expression level: 5.616
GJA7 expression level: 5.868
GM362 expression level: 5.639
HEATR5A expression level: 5.695
IGHVS515—AF290966_IG_HEAVY—VARIABLE_5515_49 expression level: 5.952
LOC235971 expression level: 5.505
LOC277422 expression level: 5.729
LOC382760 expression level: 5.651
LOC382783 expression level: 5.536
LOC383612 expression level: 5.569
LOC383940 expression level: 5.805
LOC384215 expression level: 5.829
LOC384513 expression level: 5.705
LOC385059 expression level: 5.539
LOC385626 expression level: 6.046
LOC620009 expression level: 5.619
LOC676672 expression level: 5.825
LOC100043389 expression level: 5.675
LTBP1 expression level: 5.694
NEUROD4 expression level: 5.671
NFAT5 expression level: 5.815
OA1 expression level: 5.552
OLFR750 expression level: 5.646
OLFR1085 expression level: 5.642
OLFR1158 expression level: 5.912
OLFR1180 expression level: 5.658
OLFR1230 expression level: 5.655
OSBPL6 expression level: 5.8511
PCDHGA8 expression level: 5.782
PIK3R4 expression level: 5.881
PPP1R14D expression level: 5.611
PTCHD2 expression level: 5.831
RARRES1 expression level: 5.601
RNF207 expression level: 5.863
RPL10A expression level: 14.66
RTN2 expression level: 5.939
SCL0070954.1_214 expression level: 5.822
SERPINB3D expression level: 5.741
SMARCA2 expression level: 5.616
TMEM219 expression level: 6.158
TRPC6 expression level: 5.632
UTX expression level: 5.7
control_ILMN_1378571 expression level: 5.812
control_ILMN_1378664 expression level: 5.743
control_ILMN_1379333 expression level: 5.62
1110032A03RIK expression (group mean): 5.853
1600012H06RIK expression (group mean): 7.313
1600029O10RIK expression (group mean): 7.692
1600032L17RIK expression (group mean): 6.091
1700006H02RIK expression (group mean): 5.861
1700011H14RIK expression (group mean): 5.738
1700016G05RIK expression (group mean): 5.78
1700016L04RIK expression (group mean): 5.693
1700045I19RIK expression (group mean): 5.885
1700073E17RIK expression (group mean): 5.629
1700112H15RIK expression (group mean): 5.628
1810005K13RIK expression (group mean): 5.74
1810007M14RIK expression (group mean): 6.86
2210008F06RIK expression (group mean): 5.65
2210018M11RIK expression (group mean): 6.603
2310016E02RIK expression (group mean): 5.742
2510049I19RIK expression (group mean): 6.311
2600011C06RIK expression (group mean): 6.286
2810402E24RIK expression (group mean): 6.296
4733401O04RIK expression (group mean): 6.449
4833420G17RIK expression (group mean): 6.181
4921505C17RIK expression (group mean): 6.382
4921506J03RIK expression (group mean): 9.893
4921506M07RIK expression (group mean): 5.749
4922502D21RIK expression (group mean): 5.774
4930449I04RIK expression (group mean): 5.894
4930524L23RIK expression (group mean): 5.492
5830411J07RIK expression (group mean): 5.837
5830415L20RIK expression (group mean): 7.797
5830472H07RIK expression (group mean): 6.24
6030408K21RIK expression (group mean): 5.64
9030003C19RIK expression (group mean): 6.271
9130601C02RIK expression (group mean): 5.724
9330133O14RIK expression (group mean): 6.205
9330171B01RIK expression (group mean): 5.814
9530013H16R1K expression (group mean): 5.782
9530053H22 expression (group mean): 5.531
9830118G07RIK expression (group mean): 6.53
9930021J03RIK expression (group mean): 5.61
6030408816RIK expression (group mean): 6.231
A130003P22RIK expression (group mean): 6.043
A130027D22RIK expression (group mean): 6.184
A630040J04RIK expression (group mean): 5.997
A630057J21RIK expression (group mean): 5.71
A730082L10RIK expression (group mean): 6.255
A930008A22RIK expression (group mean): 8.393
A930025D01RIK expression (group mean): 6.43
ADRA1B expression (group mean): 5.76
AFMID expression (group mean): 6.226
AGPAT5 expression (group mean): 5.926
AGT expression (group mean): 5.634
APOM expression (group mean): 6.071
ARHGAP12 expression (group mean): 5.654
ASH1L expression (group mean): 5.947
ATG12 expression (group mean): 8.962
ATL1 expression (group mean): 5.666
AW822252 expression (group mean): 5.749
B230120H23RIK expression (group mean): 5.612
B230216G23RIK expression (group mean): 5.625
B930071N01RIK expression (group mean): 5.764
BC003331 expression (group mean): 7.368
BC016608 expression (group mean): 5.838
BC057371 expression (group mean): 5.752
BCL10 expression (group mean): 6.261
BCL11B expression (group mean): 6.506
BCORL1 expression (group mean): 6.102
BHLHB3 expression (group mean): 5.621
BIRC6 expression (group mean): 6.264
BMPR1B expression (group mean): 5.732
C030004B10RIK expression (group mean): 5.708
C77370 expression (group mean): 5.694
C87414 expression (group mean): 5.972
C130039E17RIK expression (group mean): 5.729
C130064E22RIK expression (group mean): 7.411
C130072C03RIK expression (group mean): 6.075
C130075H21RIK expression (group mean): 5.869
C130078D09RIK expression (group mean): 6.02
C330011J12RIK expression (group mean): 5.722
CALCRL expression (group mean): 5.569
CCDC104 expression (group mean): 5.832
CDH23 expression (group mean): 5.945
CDKN1B expression (group mean): 6.29
CFL2 expression (group mean): 6.246
CHMP7 expression (group mean): 9.491
CLASP1 expression (group mean): 6.034
COL23A1 expression (group mean): 7.128
COPS3 expression (group mean): 6.029
COPZ1 expression (group mean): 6.26
CPEB2 expression (group mean): 5.648
CRLF1 expression (group mean): 5.648
CTDSPL2 expression (group mean): 6.711
D12WSU95E expression (group mean): 9.426
D130078K04RIK expression (group mean): 5.957
D730033A03RIK expression (group mean): 5.894
D930007M19RIK expression (group mean): 6.333
DEFB14 expression (group mean): 5.775
DLC1 expression (group mean): 5.804
DLG4 expression (group mean): 6.044
DLGAP2 expression (group mean): 5.718
DLX6 expression (group mean): 5.766
DNAJC28 expression (group mean): 5.998
DPPA1 expression (group mean): 5.758
DPPA4 expression (group mean): 5.791
E230016F22RIK expression (group mean): 5.685
E530016P10RIK expression (group mean): 6.096
EEFSEC expression (group mean): 5.654
EG546913 expression (group mean): 5.766
ELF2 expression (group mean): 6.475
EP400 expression (group mean): 5.945
FAAH expression (group mean): 5.947
FABP2 expression (group mean): 5.582
FBXW13 expression (group mean): 5.945
FOXJ3 expression (group mean): 8.648
GADD45GIP1 expression (group mean): 5.893
GALNT1 expression (group mean): 7.895
GALNT6 expression (group mean): 5.873
GAPVD1 expression (group mean): 9.838
GLRA1 expression (group mean): 5.643
GM239 expression (group mean): 5.731
GM438 expression (group mean): 5.731
GM949 expression (group mean): 5.662
GPR12 expression (group mean): 5.747
GPRIN3 expression (group mean): 5.628
GUCY2C expression (group mean): 5.74
HARS expression (group mean): 6.212
HBB-B1 expression (group mean): 13.28
HEATR5B expression (group mean): 6.251
HIRA expression (group mean): 5.73
HIVEP3 expression (group mean): 5.796
HPN expression (group mean): 5.793
HRK expression (group mean): 5.72
HSD362 expression (group mean): 5.745
HSPA1B expression (group mean): 5.99
ID2 expression (group mean): 6.095
IFI204 expression (group mean): 5.486
IGHV14S3—X03573$M12991X03573—IG_HEAVY—VARIABLE_14S3_203 expression (group mean): 6.044
IKZF5 expression (group mean): 7.23
IL1F9 expression (group mean): 5.644
INPP4B expression (group mean): 9.329
INSL6 expression (group mean): 9.438
ITGA6 expression (group mean): 6.589
ITK expression (group mean): 10.36
JRKL expression (group mean): 5.816
K20D4 expression (group mean): 5.688
KAT2B expression (group mean): 6.564
KCNK4 expression (group mean): 5.659
KISS1 expression (group mean): 5.727
KRIT1 expression (group mean): 5.684
KRT32 expression (group mean): 6.01
LCN3 expression (group mean): 5.859
LCP2 expression (group mean): 6.557
LOC209474 expression (group mean): 5.679
LOC229152 expression (group mean): 5.605
LOC236397 expression (group mean): 5.838
LOC236831 expression (group mean): 12.43
LOC268939 expression (group mean): 5.99
LOC279638 expression (group mean): 6.022
LOC333749 expression (group mean): 5.939
LOC381448 expression (group mean): 12.91
LOC381561 expression (group mean): 13.17
LOC381770 expression (group mean): 6.112
LOC382061 expression (group mean): 10.4
LOC382454 expression (group mean): 5.761
LOC384240 expression (group mean): 5.807
LOC384287 expression (group mean): 5.612
LOC385027 expression (group mean): 5.666
LOC385046 expression (group mean): 5.695
LOC630421 expression (group mean): 5.995
LOC637082 expression (group mean): 5.805
LOC674087 expression (group mean): 8.034
LOC675899 expression (group mean): 11.9
LOC100045437 expression (group mean): 5.74
LOC100046343 expression (group mean): 8.607
LOC100046568 expression (group mean): 5.888
LOC100048049 expression (group mean): 5.81
LOC100048616 expression (group mean): 6.595
LOXL3 expression (group mean): 5.801
LPIN2 expression (group mean): 7.582
LRRC18 expression (group mean): 5.542
LRRC39 expression (group mean): 5.712
MACROD2 expression (group mean): 5.854
MADD expression (group mean): 5.584
MAT2A expression (group mean): 8.359
MDM2 expression (group mean): 10.46
MEDI expression (group mean): 5.672
MEX3A expression (group mean): 6.913
MIA3 expression (group mean): 5.862
MIS12 expression (group mean): 5.989
MKI67 expression (group mean): 5.673
MRPS31 expression (group mean): 5.671
MSH3 expression (group mean): 6.288
MYB expression (group mean): 5.95
MYO5C expression (group mean): 5.73
NA112 expression (group mean): 8.275
NANP expression (group mean): 5.686
NARF expression (group mean): 7.224
NCOA2 expression (group mean): 5.964
NDRG1 expression (group mean): 7.329
NIN expression (group mean): 8.534
NIPSNAP1 expression (group mean): 9.27
NT5C expression (group mean): 10.09
NUFIP2 expression (group mean): 6.03
OLFR125 expression (group mean): 5.697
OLFR463 expression (group mean): 5.805
OLFR504 expression (group mean): 5.746
OLFR564 expression (group mean): 5.592
OLFR782 expression (group mean): 5.74
OLFR894 expression (group mean): 5.766
PAPPA expression (group mean): 5.918
